Measured values published in PMC5298231, “The Malaria Parasite's Lactate Transporter PfFNT Is the Target of Antiplasmodial Compounds Identified in Whole Cell Phenotypic Screens” (PLoS Pathogens, 2017).

Experiments:
3D7 parasites [1] = assay: Parasite viability after timed exposure and washout (parasitaemia on Day 3); conditions: 6 μM; for Effect on parasite viability: parasitaemia three days later
non-injected oocytes = type: cell-based, Xenopus laevis; conditions: full range of inhibitor concentrations
PfFNT^Gly107Ser = target: T1, PfFNT^Gly107Ser (Plasmodium falciparum, UniProt O77389, G107S); assay: PfFNT-mediated L-[14C]lactate uptake by Xenopus oocytes expressing PfFNT Gly107Ser; type: cell-based; conditions: PfFNT Gly107Ser in Xenopus oocytes; pH 6.4, 27.5°C, 10 min; mean ± SEM, n = 4; read-out: IC50, inhibition of PfFNT-mediated L-[14C]lactate transport
T1 construct: expressed in transfected cells; host or cells: Xenopus laevis oocytes (cRNA microinjected, 30 ng)
T1 sequence (O77389 1-309 G107S): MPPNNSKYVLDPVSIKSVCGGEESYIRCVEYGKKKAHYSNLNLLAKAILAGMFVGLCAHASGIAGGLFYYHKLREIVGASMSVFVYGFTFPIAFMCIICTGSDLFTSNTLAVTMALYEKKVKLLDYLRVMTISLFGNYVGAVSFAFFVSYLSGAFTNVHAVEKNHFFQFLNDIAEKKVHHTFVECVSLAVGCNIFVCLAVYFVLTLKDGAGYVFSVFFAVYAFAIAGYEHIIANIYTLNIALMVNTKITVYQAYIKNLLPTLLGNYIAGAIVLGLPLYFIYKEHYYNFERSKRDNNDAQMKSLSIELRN
Procedure: The PfFNT-mediated uptake of L-[^14C]lactate by oocytes expressing native PfFNT (black symbols) or oocytes expressing PfFNT^Gly107Ser (white symbols) was measured in the presence of a range of different concentrations of MMV007839 (A) and MMV000972 (B). […] To enable a visual comparison between the native PfFNT and PfFNT^Gly107Ser datasets, only part of the concentration range used for the latter is shown in the main panels. The insets show the data obtained for PfFNT^Gly107Ser over the full concentration range tested. In all cases, the data are averaged from four independent experiments (using oocytes from different frogs) and are shown ± SEM. The uptake was measured at 27.5°C over 10 min at pH 6.4 using 2.7 μM L-[^14C]lactate and 600 μM unlabelled L-lactate.
The oocyte expression vectors containing PfFNT, PfENT1 and PfCRT were made previously. […] The uptake of radiolabelled substrates was measured 2–5 days post-injection at 27.5°C in ND96 buffer (containing 96 mM NaCl, 2 mM KCl, 1 mM MgCl2, 1.8 mM CaCl2, 10 mM MES and 10 mM Tris-base; pH-adjusted to the value specified in the relevant Figure legends). […] The oocytes were then transferred to separate wells of a 96-well plate, lysed with 10% SDS, and the radioactivity measured as described previously.

3D7 parasites [2] = assay: Parasite proliferation assay, 3D7; type: cell-based, Plasmodium falciparum; conditions: 3D7 (our laboratory); mean ± SEM; read-out: IC50 value, growth inhibition
Procedure: Parasite proliferation was measured in 96-well plates using a fluorescent DNA-intercalating dye. The assays were initiated with erythrocytes infected with predominantly ring-stage parasites, and the starting parasitaemia was 0.5–1% and the haematocrit was 1%.

In the case of `COc1ccc2c(c1)OC(O)(C(F)(F)C(F)(F)F)CC2=O` (stereo not drawn) [MMV007839], the “Effect on parasite viability” value (3D7 parasites [1]; 1 h exposure) is reported as “did not significantly affect”, the “Effect on parasite viability” value (3D7 parasites [1]; 3 h exposure) is reported as “did not significantly affect” and the “Parasitaemia three days after exposure, of control levels” value (3D7 parasites [1]; 6 h exposure, mean ± SEM, n = 3) is reported as 49 ± 7%. The “Effect on L-[14C]lactate transport into control (non-injected) oocytes” value (non-injected oocytes) was “no changes”, the IC50 (PfFNT^Gly107Ser) was 1300 ± 200 nM and the IC50 (3D7 parasites [2]) was 260 ± 30 nM.
